Read-outs that look alike come from different tables or passages of the source.
Columns and labels:
DOHH2 cells = test: Cell proliferation assay (MTS), DOHH2 cells, 120 h; assay type: cell-based
How it was run: (§1)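 Proliferation was scored by MTS (2 h, then SDS stop, A490 with 650 nm reference) and IC50 derived. Compound ran at nine final concentrations from 1.5 to 10000 nM. DOHH2 were incubated 120 h and RS4;11 72 h, both plated at 5000 cells/well in RPMI-1640 plus 10% FBS.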

RS4;11 cells = test: Cell proliferation assay (MTS), RS4;11 cells, 72 h; assay type: cell-based
How it was run: as §1

Compound: CC1(C)CCC(CN2CCN(c3ccc(C(=O)NS(=O)(=O)c4cc5c(c([N+](=O)[O-])c4)N[C@@H](C4CCC(O)CC4)CO5)c(Oc4cnc5[nH]ccc5c4)c3)CC2)=C(c2ccc(Cl)cc2)C1 (stereo partly drawn) [Example 2-245A, (S)-2-((1H-pyrroo[2,3-b]pyridin-5-yl)oxy)-4-(4-((4′-chloro-5,5-dimethyl-3,4,5,6-tetra-hydro-[1,1′-biphenyl]-2-yl)methyl)piperazin-1-yl)-N-((3-(4-hydroxycyclohexyl)-5-nitro-3,4-dihydro-2H-benzo[b][1,4]oxazin-7-yl)sulfonyl)benzamide]
- IC50 (DOHH2 cells; Homo sapiens, DOHH-2, 120 h): 1 nM
- IC50 (RS4;11 cells; Homo sapiens, RS4-11, 72 h): 1 nM

Compound: COC1CCC(C[C@H]2COc3cc(S(=O)(=O)NC(=O)c4ccc(N5CCN(CC6=C(c7ccc(Cl)cc7)CC(C)(C)CC6)CC5)cc4Oc4cnc5[nH]ccc5c4)cc([N+](=O)[O-])c3N2)CC1 (stereo partly drawn) [Example 2-246B, (S)-2-((1H-pyrrolo[2,3-b]pyridin-5-yl)oxy)-4-(4-((4′-chloro-5,5-dimethyl-3,4,5,6-tetra-hydro-[1,1′-biphenyl]-2-yl)methyl)piperazin-1-yl)-N-((3-((4-methoxycyclohexyl)meth-yl)-5-nitro-3,4-dihydro-2H-benzo[b][1,4]oxa-zin-7-yl)sulfonyl)benzamide]
- IC50 (DOHH2 cells; Homo sapiens, DOHH-2, 120 h): 13 nM
- IC50 (RS4;11 cells; Homo sapiens, RS4-11, 72 h): 29 nM

Compound: COC1CCC([C@H]2COc3cc(S(=O)(=O)NC(=O)c4ccc(N5CCN(CC6=C(c7ccc(Cl)cc7)CC(C)(C)CC6)CC5)cc4Oc4cnc5[nH]ccc5c4)cc([N+](=O)[O-])c3N2)CC1 (some centres unmarked) [Example 2-247A]
- IC50 (DOHH2 cells; Homo sapiens, DOHH-2, 120 h): 19 nM
- IC50 (RS4;11 cells; Homo sapiens, RS4-11, 72 h): 24 nM

Compound: COC1CCC([C@H]2COc3cc(S(=O)(=O)NC(=O)c4ccc(N5CCN(CC6=C(c7ccc(Cl)cc7)CC(C)(C)CC6)CC5)cc4Oc4cnc5[nH]ccc5c4)cc([N+](=O)[O-])c3N2)CC1 (stereo partly drawn) [Example 2-247B, (S)-2-((1H-pyrrolo[2,3-b]pyridin-5-yl)oxy)-4-(4-((4′-chloro-5,5-dimethyl-3,4,5,6-tetra-hydro-[1,1′-biphenyl]-2-yl)methyl)piperazin-1-yl)-N-((3-(4-methoxycyclohexyl)-5-nitro-3,4-dihydro-2H-benzo[b][1,4]oxazin-7-yl)sulfonyl)benzamide]
- IC50 (DOHH2 cells): 36 nM
- IC50 (RS4;11 cells): 45 nM

Compound: COC1CCC([C@@H]2COc3cc(S(=O)(=O)NC(=O)c4ccc(N5CCN(CC6=C(c7ccc(Cl)cc7)CC(C)(C)CC6)CC5)cc4Oc4cnc5[nH]ccc5c4)cc([N+](=O)[O-])c3N2)CC1 (stereo partly drawn) [Example 2-248A, (R)-2-((1H-pyrrolo[2,3-b]pyridin-5-yl)oxy)-4-(4-((4′-chloro-5,5-dimethyl-3,4,5,6-tetra-hydro-[1,1′-biphenyl]-2-yl)methyl)piperazin-1-yl)-N-((3-(4-methoxycyclohexyl)-5-nitro-3,4-dihydro-2H-benzo[b][1,4]oxazin-7-yl)sulfonyl)benzamide]
- IC50 (DOHH2 cells; Homo sapiens, DOHH-2, 120 h): 27 nM
- IC50 (RS4;11 cells; Homo sapiens, RS4-11, 72 h): 35 nM

Compound: COC1CCC([C@@H]2COc3cc(S(=O)(=O)NC(=O)c4ccc(N5CCN(CC6=C(c7ccc(Cl)cc7)CC(C)(C)CC6)CC5)cc4Oc4cnc5[nH]ccc5c4)cc([N+](=O)[O-])c3N2)CC1 (stereo partly drawn) [Example 2-248B, (R)-2-((1H-pyrrolo[2,3-b]pyridin-5-yl)oxy)-4-(4-((4′-chloro-5,5-dimethyl-3,4,5,6-tetra-hydro-[1,1′-biphenyl]-2-yl)methyl)piperazin-1-yl)-N-((3-(4-methoxycyclohexyl)-5-nitro-3,4-dihydro-2H-benzo[b][1,4]oxazin-7-yl)sulfonyl)benzamide]
- IC50 (DOHH2 cells): 14 nM
- IC50 (RS4;11 cells): 64 nM

Compound: CC1(C)CCC(CN2CCN(c3ccc(C(=O)NS(=O)(=O)c4cc5c(c([N+](=O)[O-])c4)N[C@H](CO[C@H]4CC[C@H](O)CC4)CO5)c(Oc4cnc5[nH]ccc5c4)c3)CC2)=C(c2ccc(Cl)cc2)C1 [Example 2-250, 2-((1H-pyrrolo[2,3-b]pyridin-5-yl)oxy)-4-(4-((4′-chloro-5,5-dimethyl-3,4,5,6-tetrahydro-[1,1′-biphenyl]-2-yl)methyl)piperazin-1-yl)-N-(((R)-3-((((1r,4R)-4-hydroxycyclo-hexyl)oxy)methyl)-5-nitro-3,4-dihydro-2H-benzo[b][1,4]oxazin-7-yl)sulfonyl)benzamide]
- IC50 (DOHH2 cells; Homo sapiens, DOHH-2, 120 h): 7 nM
- IC50 (RS4;11 cells; Homo sapiens, RS4-11, 72 h): 1 nM
